Earlier results on two compounds are cited in article PMC8900053, “Selumetinib in combination with dexamethasone for the treatment of relapsed/refractory RAS-pathway mutated paediatric and adult acute lymphoblastic leukaemia (SeluDex): study protocol for an international, parallel-group, dose-finding with expansion phase I/II trial” (BMJ Open, 2022).

The conditions of data set [1]: human, in vivo.
For data set [2] the following is noted: early information from clinical studies.
The mark [3] stands for this setting: common side effect of selumetinib.

With `C[C@@H]1C[C@H]2[C@@H]3CCC4=CC(=O)C=C[C@]4(C)[C@@]3(F)[C@@H](O)C[C@]2(C)[C@@]1(O)C(=O)CO` [dexamethasone], in data set [1], the “Tolerability of pulsed dosing versus continuous dosing” value was “better tolerated”.
Turning to `Cn1cnc2c(F)c(Nc3ccc(Br)cc3Cl)c(C(=O)NOCCO)cc21` [selumetinib], for the setting “blurred vision mild or moderate in all reported previous cases”, the “Chance that blurred vision may affect daily living” value is “about 5%”. In addition, under setting [3], the “Being sick (people affected)” value is given as about 30%, the “Diarrhoea (people affected)” value is on record as about 50%, the “Feeling sick (people affected)” value was about 50% and the “Feeling tired or weak (people affected)” value is reported as about 40%. Also, under setting [3], the “Shortness of breath (people affected)” value is recorded as about 20%; the “Skin rash, which may be itchy (people affected)” value was about 70%; the “Swelling of the hands or feet (people affected)” value is on record as about 30%. Further, the Tolerability result (more than 3,080 people have had the drug so far) is “very well tolerated”. For the setting “patients receiving selumetinib”, the “Swelling of the face or extremities” value is “commonly reported”. Further, the “Skin rash cases that can be more serious and require treatment” value (share of skin rash cases, majority of events are mild) is given as “around 10%”. Also, the “Blood levels of selumetinib in people of Asian origin versus non-Asian subjects” value in data set [2] was “higher”.
